29 molecules from patent publication US7348347B2, “Substituted 4,5,6,7-tetrahydrobenzthiazol-2-ylamine compounds” (Gruenenthal GmbH, priority 2004, dated 2008) can be followed below.

In one test the target is T1, 5-HT uptake (Rattus norvegicus, UniProt P31652).
T1 construct: from tissue; host or cells: rat brain synaptosomes (P2 fraction) from marrow (medulla) and pons
T1 sequence (P31652 whole entry): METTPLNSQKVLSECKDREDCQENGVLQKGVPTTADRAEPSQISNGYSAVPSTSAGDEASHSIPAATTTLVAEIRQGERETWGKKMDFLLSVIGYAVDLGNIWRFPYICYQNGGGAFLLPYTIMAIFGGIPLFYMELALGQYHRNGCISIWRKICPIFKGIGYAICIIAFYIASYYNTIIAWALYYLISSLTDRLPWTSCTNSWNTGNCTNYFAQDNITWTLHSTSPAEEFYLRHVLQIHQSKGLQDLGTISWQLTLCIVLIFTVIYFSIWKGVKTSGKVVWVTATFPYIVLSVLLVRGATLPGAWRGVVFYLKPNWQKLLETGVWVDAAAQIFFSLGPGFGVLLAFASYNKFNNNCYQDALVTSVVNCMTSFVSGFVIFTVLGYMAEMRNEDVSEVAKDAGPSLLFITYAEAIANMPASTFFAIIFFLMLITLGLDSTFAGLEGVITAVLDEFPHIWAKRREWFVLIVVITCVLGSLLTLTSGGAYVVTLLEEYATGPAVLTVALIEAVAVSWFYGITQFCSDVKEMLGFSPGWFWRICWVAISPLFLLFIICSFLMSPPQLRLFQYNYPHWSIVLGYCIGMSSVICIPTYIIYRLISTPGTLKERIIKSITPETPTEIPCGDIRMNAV
Nature of the test: Inhibition of 5-HT uptake in rat brain synaptosomes. The test is classed as biochemical. To be noted: rat synaptosomes (and pons), [3H]-5-HT. The procedure:
The relevant literature reference is enclosed herein by reference and is to be regarded as part of the disclosure.
The homogenate is centrifuged at 4° C. for 10 minutes at 1000 g. Following subsequent centrifugation at 17,000 g for 55 minutes, the synaptosomes (P2 fraction) are obtained, which are then resuspended in 0.32 M […] (0.5 mL/100 mg of the original weight).
The respective uptake was measured in a 96 well microtiter plate. The volume was 250 μL and the incubation was carried out at room temperature (ca 20-25° C.) under a blanket of oxygen.
The 96 samples through were then filtered through a Unifilter GF/B® microtiter plate (Packard) and washed with 200 mL of incubated buffer with the aid of a “Brabdel Cell-Harvester MPXRI 96T”. The Unifilter GF/B plate was dried at 55° C. over a period of 1 h. The plate was then sealed with a back seal® (Packard) and there were then added 35 μL of scintillant fluid per well (Ultima Gold, Packard).
A detailed description of the method is disclosed in the literature, for example, in M. Ch.
As to `CN1CCCN(C(=O)C2CCCc3sc(NC(=O)COc4ccccc4)nc32)CC1` (centres unmarked) [Example 2, N-[4-(4-Methyl-[1,4]diazepam-1-carbonyl)-4,5,6,7-tetrahydrobenzthiazol-2-yl]-2-phenoxy acetamide], the “% Inhibition of 5-HT uptake [10 μM]” value was 58%. On the same count and under the same terms, the result for “2-[2-(3,5-Difluorophenyl)acetylamino]-4,5,6,7-tetrahydrobenzthiazol-4-carboxylic acid[1-(2-ethoxybenzyl)pyrrolidin-3-yl]methylamide [Example 44]” reads 41%.

Staying with this test, now noted: rat synaptosomes (medulla and pons), [3H]-5-HT.
The term inhibition denotes the percentage by which the read-out fell short of the control. Low values mean little suppression, high ones strong suppression. Consider `CCOc1ccccc1C(=O)Nc1nc2c(s1)CCCC2C(=O)N1CCN(c2ccccc2Cl)CC1` (centres unmarked) [Example 85, N-{4-[4-(2-Chlorophenyl)piperazin-1-carbonyl]-4,5,6,7-tetrahydrobenzthiazol-2-yl}-2-ethoxybenzamide], for which the inhibition at 10 µM amounted to 48%. `CC1CCCCN1CCCNC(=O)C1CCCc2sc(NC(=O)COc3ccccc3)nc21` (centres unmarked) [Example 42, 2-(2-Phenoxyacetylamino)-4,5,6,7-tetrahydrobenzthiazol-4-carboxylic acid[3-(2-methylpiperidin-1-yl)propyl]amide]: the “% Inhibition of 5-HT uptake [10 μM]” value is listed as 42%. As for `O=C(Cc1cc(F)cc(F)c1)Nc1nc2c(s1)CCCC2C(=O)N1CCN(C(c2ccccc2)c2ccccc2)CC1` (centres unmarked) [Example 83, N-[4-(4-Benzhydrylpiperazin-1-carbonyl)-4,5,6,7-tetrahydrobenzthiazol-2-yl]-2-(3,5-difluorophenyl)acetamide], at 10 µM the inhibition was 44%.

For `Cc1cc(C)cc(C(=O)Nc2nc3c(s2)CCCC3C(=O)NC2CCN(Cc3ccccc3SC(C)(C)C)C2)c1` (centres unmarked) [Example 35], the “% Inhibition of 5-HT uptake [10 μM]” value is given as 41%. For `COc1ccccc1CC(=O)Nc1nc2c(s1)CCCC2C(=O)N1CCN(Cc2cc(OC)c3c(c2)OCO3)CC1` (centres unmarked) [Example 6, N-{4-[4-(7-Methoxybenzo[1, 3]dioxol-5-ylmethyl)piperazin-1-carbonyl]-4,5,6,7-tetrahydrobenzthiazol-2-yl}-2-(2-methoxyphenyl)acetamide], 10 µM produced 51% inhibition. As to `CN1CCN(C(=O)C2CCCc3sc(NC(=O)c4ccc5ccccc5c4)nc32)CC1` (centres unmarked) [Example 4, Naphthalene-2-carboxylic acid[4-(4-methylpiperazin-1-carbonyl)-4,5,6,7-tetrahydrobenzthiazol-2-yl]amide], the “% Inhibition of 5-HT uptake [10 μM]” value is 48%.

Turning to `O=C(Nc1nc2c(s1)CCCC2C(=O)N1CCN(CC(=O)N2CCCC2)CC1)c1ccc2ccccc2c1` (centres unmarked) [Example 32, Naphthalene-2-carboxylic acid{4-[4-(2-oxo-2-pyrrolidin-1-ylethyl)piperazin-1-carbonyl]-4,5,6,7-tetrahydrobenzthiazol-2-yl}amide], the “% Inhibition of 5-HT uptake [10 μM]” value was determined as 51%. On the same count and under the same terms, the result for `CCOc1ccccc1C(=O)Nc1nc2c(s1)CCCC2C(=O)NCCCN(C)c1ccccc1` (centres unmarked) [Example 69, 2-(2-Ethoxybenzoylamino)-4,5,6,7-tetrahydrobenzthiazol-4-carboxylic acid[3-(methylphenyl-amino)propyl]amide] reads 80%. Turning to `CC=CC=CC(=O)Nc1nc2c(s1)CCCC2C(=O)NCC1CCN(Cc2ccc(-c3ccccc3)cc2)C1` (centres unmarked) [Example 37, 2-Hexa-2,4-dienoylamino-4,5,6,7-tetrahydrobenzthiazol-4-carboxylic acid (1-biphenyl-4-ylmethylpyrrolidin-3-yl)methylamide], at 10 µM the inhibition was 44%. On to `O=C(Nc1nc2c(s1)CCCC2C(=O)N1CCN(Cc2ccccc2F)CC1)c1ccc2ccccc2c1` (centres unmarked) [Example 53, Naphthalene-2-carboxylic acid{4-[4-(2-fluorobenzyl)piperazin-1-carbonyl]-4,5,6,7-tetrahydrobenzthiazol-2-yl}amide], for which the “% Inhibition of 5-HT uptake [10 μM]” value worked out at 42%. Consider `CN(CCCNC(=O)C1CCCc2sc(NC(=O)CC3CCCCC3)nc21)c1ccccc1` (centres unmarked) [Example 68, 2-(2-Cyclohexylacetylamino)-4,5,6,7-tetrahydrobenzthiazol-4-carboxylic acid [3-(methylphenyl-amino)propyl]amide], for which 10 µM produced 84% inhibition. On to `CN1CCCC1CCNC(=O)C1CCCc2sc(NC(=O)COc3ccc(F)cc3)nc21` (centres unmarked) [Example 46, 2-[2-(4-Fluorophenoxy)acetylamino]-4,5,6,7-tetrahydrobenzthiazol-4-carboxylic acid[2-(1-methylpyrrolidin-2-yl)ethyl]amide], for which the “% Inhibition of 5-HT uptake [10 μM]” value was 53%. Consider `O=C(C=Cc1ccco1)Nc1nc2c(s1)CCCC2C(=O)N1CCN(c2cccc(C(F)(F)F)c2)CC1` (centres unmarked) [Example 76, 3-Furan-2-yl-N-{4-[4-(3-trifluoromethylphenyl)piperazin-1-carbonyl]-4,5,6,7-tetrahydrobenzthiazol-2-yl}acrylamide], for which the inhibition at 10 µM was determined as 62%.

The molecule `CCOc1cc(N2CCOCC2)c(OCC)cc1NC(=O)C1CCCc2sc(NC(=O)CC(C)(C)C)nc21` (centres unmarked) [Example 80, 2-(3,3-Dimethylbutyrylamino)-4,5,6,7-tetrahydrobenzthiazol-4-carboxylic acid (2,5-diethoxy-4-morpholin-4-ylphenyl)amide] displayed an inhibition at 10 µM of 52%. `CCCCCC(=O)Nc1nc2c(s1)CCCC2C(=O)N1CCN(Cc2cc3ccccc3o2)CC1` (centres unmarked) [Example 65, Hexanoic acid[4-(4-benzofuran-2-ylmethylpiperazin-1-carbonyl)-4,5,6,7-tetrahydrobenzthiazol-2-yl]amide]: the “% Inhibition of 5-HT uptake [10 μM]” value is reported as 44%.

With `CN(C)CCN1CCN(C(=O)C2CCCc3sc(NC(=O)CC4CCCCC4)nc32)CC1` (centres unmarked) [Example 1, 2-Cyclohexyl-N-{4-[4-(2-Dimethylaminoethyl)piperazin-1-carbonyl]-4,5,6,7-tetrahydrobenzthiazol-2-yl}acetamide], the inhibition at 10 µM stood at 65%.

As to `O=C(CCc1ccccc1)Nc1nc2c(s1)CCCC2C(=O)N1CCN(c2ccc(C(F)(F)F)cn2)CC1` (centres unmarked) [Example 70, 3-Phenyl-N-{4-[4-(5-trifluoromethylpyridin-2-yl)piperazin-1-carbonyl]-4,5,6,7-tetrahydrobenzthiazol-2-yl}propionamide], the inhibition at 10 µM was found to be 44%. The molecule `CN(C)CCCNC(=O)C1CCCc2sc(NC(=O)CC(C)(C)C)nc21` (centres unmarked) [Example 24, 2-(3,3-Dimethylbutyrylamino)-4,5,6,7-tetrahydrobenzthiazol-4-carboxylic acid(3-dimethylaminopropyl)amide] displayed an inhibition at 10 µM of 89%.

As for `CCCCCCNc1nc2c(s1)CCCC2C(=O)N(C)C1CCN(Cc2cc3ccccc3o2)C1` (centres unmarked) [Example 41, 2-Hexanylamino-4,5,6,7-tetrahydrobenzthiazol-4-carboxylic acid(1-benzofuran-2-ylmethylpyrrolidin-3-yl)methylamide], the “% Inhibition of 5-HT uptake [10 μM]” value was found to be 77%. As for `O=C(Nc1nc2c(s1)CCCC2C(=O)NCCN1CCCC1)c1ccc2ccccc2c1` (centres unmarked) [Example 43, 2-[(Naphthalene-2-carbonyl)amino]-4,5,6,7-tetrahydrobenzthiazol-4-carboxylic acid (2-pyrrolidin-1-ylethyl)amide], the inhibition at 10 µM stood at 63%. The same measure, in the same setting: the result for `CC(C)(C)CC(=O)Nc1nc2c(s1)CCCC2C(=O)N1CCN(c2ccc(C(F)(F)F)cn2)CC1` (centres unmarked) [Example 86, 3,3-Dimethyl-N-{4-[4-(5-trifluoromethylpyridin-2-yl)piperazin-1-carbonyl]-4,5,6,7-tetrahydrobenzthiazol-2-yl}butyramide] reads 54%; that for `O=C(CC1CCCCC1)Nc1nc2c(s1)CCCC2C(=O)N1CCN(C(c2ccccc2)c2ccccc2)CC1` (centres unmarked) [Example 88, N-[4-(4-Benzhydrylpiperazin-1-carbonyl)-4,5,6,7-tetrahydrobenzthiazol-2-yl]-2-cyclohexylacetamide], 41%.

In the case of `O=C(Cc1cccs1)Nc1nc2c(s1)CCCC2C(=O)N1CCN(C(c2ccccc2)c2ccccc2)CC1` (centres unmarked) [Example 84, N-[4-(4-Benzhydrylpiperazin-1-carbonyl)-4,5,6,7-tetrahydrobenzthiazol-2-yl]-2-thiophen-2-ylacetamide], at 10 µM the inhibition was 53%. Consider `CN(C)CCNC(=O)C1CCCc2sc(NC(=O)COc3ccccc3)nc21` (centres unmarked) [Example 30, 2-(2-Phenoxyacetylamino)-4,5,6,7-tetrahydrobenzthiazol-4-carboxylic acid(2-dimethylaminoethyl)amide], for which the “% Inhibition of 5-HT uptake [10 μM]” value was determined as 64%.

In the case of `CC1CCCCN1CCCNC(=O)C1CCCc2sc(NC(=O)C=Cc3ccco3)nc21` (centres unmarked) [Example 23, 2-(3-Furan-2-ylacryloylamino)-4,5,6,7-tetrahydrobenzthiazol-4-carboxylic acid [3-(2-methylpiperidin-1-yl)propyl]amid], testing at 10 µM gave an inhibition of 57%. Same read-out and setting: the result for `O=C(Cc1cc(F)cc(F)c1)Nc1nc2c(s1)CCCC2C(=O)N1CCN(c2cccc(C(F)(F)F)c2)CC1` (centres unmarked) [Example 74, 2-(3,5-Difluorophenyl)-N-{4-[4-(3-trifluoromethylphenyl)piperazin-1-carbonyl]-4,5,6,7-tetrahydrobenzthiazol-2-yl}acetamide] reads 82%. Consider `O=C(Cc1cc(F)cc(F)c1)Nc1nc2c(s1)CCCC2C(=O)NCC1CCN(Cc2c(Cl)cccc2Cl)C1` (centres unmarked) [Example 62, 2-[2-(3,5-Difluorophenyl)acetylamino]-4,5,6,7-tetrahydrobenzthiazol-4-carboxylic acid[1-(2,6-dichlorobenzyl)pyrrolidin-3-yl]methylamide], for which the “% Inhibition of 5-HT uptake [10 μM]” value stood at 53%.
